Measured values taken from PMC4266338 (ACS Medicinal Chemistry Letters, 2014).

Experiments:
CHOP = assay: CHO-CHOP-luciferase reporter assay; format: cell-based, Chinese hamster; conditions: for UPR CHOP AC50 ± SEM: CHO-CHOP-luciferase cells, averaged from n ≥ 4 experiments
[1] = Mouse pharmacokinetics IV and IP; conditions: male CD-1 mice, IV 2 mg/kg single dose
Aqueous solubility = format: physicochemical; conditions: through a biologically relevant pH range
HN6 = assay: OSCC proliferation assay HN6; format: cell-based, human; conditions: HN6, 24 h
HN30 = assay: OSCC proliferation assay HN30; format: cell-based; conditions: Homo sapiens, 24 h, read-out: potency, dose–response proliferation assay
PAMPA permeability = format: in vitro ADME; conditions: donor pH 5.0, 6.2, and 7.4
[2] = Hepatic microsome stability, mouse; format: in vitro ADME; conditions: 37°C, after 1 hr
[3] = system: Chop knockout murine embryonic fibroblast (MEF) cells; assay: MEF proliferation assay, Chop knockout; format: cell-based, mouse; conditions: concentrations up to 20 μM, 24 h, Figure S1
H460/T800 = assay: OSCC proliferation assay H460/T800; format: cell-based, human; conditions: H460/T800, 24 h
[4] = Hepatic microsome stability, human; format: in vitro ADME; conditions: 37°C, after 1 hr
[5] = Chemical stability toward thiol nucleophiles; format: physicochemical; conditions: 10 μM in PBS pH 7.4, 1% DMSO, 8 h, room temperature
[6] = system: human tumor cell line panel (NCI-60); assay: NCI-60 human tumor cell line panel; format: cell-based; conditions: colon, melanoma, and renal cancer cell lines
A253 = assay: OSCC proliferation assay A253; format: cell-based, human; conditions: A253, 24 h

For `O=C(Nc1ccc(S(=O)(=O)N2CCNCC2)cc1)c1ccc([N+](=O)[O-])o1` [Compound 8], the loss of activity (CHOP; CHOP activation relative to hit 3) was about 14 fold.

With `O=C(Nc1ccc(S(=O)(=O)N2CCC(O)CC2)cc1)c1ccc([N+](=O)[O-])o1` [Compound 9] the “UPR CHOP AC50 ± SEM” value (CHOP) was “on par with activity observed with hit 3”.

With `O=C(Nc1ccc(S(=O)(=O)N2CCC(Cl)CC2)cc1)c1ccc([N+](=O)[O-])o1` [Compound 12] the “IV dose cleared from circulation within” value [1] was at most 30 min, the “Aqueous stability in PBS and pION buffer” value (Aqueous solubility) was 8.7–9.7 μM and the “sensitivity, dose–response proliferation assay” value (HN6) was “more resistant”. The EC50 (HN30) was 9 ± 1.1 µM, the “PAMPA permeability in words” value (PAMPA permeability) was “good permeability” and the “Hepatic Microsome Stability percent remaining” value [2] was “almost completely metabolized”. For the same compound, the “effect on Chop-null MEF cells” value [3] was “unaffected”, the “sensitivity, dose–response proliferation assay” value (H460/T800) was “more resistant” and the “Hepatic Microsome Stability percent remaining” value [4] was “almost completely metabolized”. The “compound remaining with dithiothreitol (DTT)” value ([5]; 5-fold excess DTT) was 100%, the “compound remaining with glutathione (GSH)” value ([5]; 5-fold excess GSH) was 100% and the growth inhibition potency [6] was “low micromolar potency”. The “sensitivity, dose–response proliferation assay” value (A253) was “more resistant”.

For `O=C(Nc1ccc(S(=O)(=O)N2CCOCC2)cc1)c1ccco1` [Compound 27], the “UPR CHOP AC50 ± SEM” value (CHOP) was “loss of activity”.

In the case of `Cc1ccc(C(=O)Nc2ccc(S(=O)(=O)N3CCOCC3)cc2)o1` [Compound 28], the “UPR CHOP AC50 ± SEM” value (CHOP) is reported as “loss of activity”.

For `O=C(Nc1ccc(S(=O)(=O)N2CCOCC2)cc1)c1ccc(Br)o1` [Compound 29], the “UPR CHOP AC50 ± SEM” value (CHOP) was “loss of activity”.

For `CC1(C)CCN(S(=O)(=O)c2ccc(NC(=O)c3ccc(C(F)(F)F)o3)cc2)CC1` [Compound 30], the “UPR CHOP AC50 ± SEM” value (CHOP) was “loss of activity”.
